System: ILC2s
Assay: In vitro activation of purified ILC2s, type 2 cytokine protein by intracellular staining
Assay type: cell-based, mouse
Protocol: FIGS. 10a-10d: FIG. 10a, Ki67 expression in intestinal ILC2s after an overnight in vitro stimulation with NmU23 alone (100 ng/mL, Phoenix Pharmaceutical) or NmU23 together with the survival cytokines Interleukin (IL)-2 and/or IL-7 (10 ng/mL). FIG. 10b, Ki67 expression in intestine ILC2 after in vivo administration of NmU23 (4 g/day during 2 days). n=5. FIG. 10c, ILC2-derived type 2 cytokines (IL-5, IL-13 and Amphiregulin (Areg)) in sorted intestine ILC2 after an overnight stimulation with NmU23, mouse recombinant IL-25 or IL-33 (R&D) (10, 50 and 100 ng/mL). Negative control: unstimulated ILC2, Positive control: ILC2 activated with phorbol 12-myristate 13-acetate (PMA, 50 ng/ml) plus ionomycin (500 ng/ml). n=3. FIG. 10d, Dot plots representative of the cytokine production with increasing dose of NmU23, rIL-25 and rIL-33. *P<0.05; **P<0.01; ***P<0.001; ****P<0.0001; ns not significant.
For in vitro experiments, purified lung and small intestine lamina propria ILC2s were FBS starved for 2 hours prior to stimulation and cultured in complete RPMI (supplemented with 10% foetal bovine serum (FBS), 1% hepes, sodium pyruvate, glutamine, streptomycin and penicillin) at 37° C. For mRNA analysis, ILC2s were stimulated overnight with recombinant mouse Neuromedin U 23 peptide (NmU23, 100 ng/mL; Phoenix pharmaceuticals). Both NmU23-stimulated and control ILC2s were cultured in the presence of IL-2 and IL-7 (10 ng/mL; Peprotech). ILC2s were lysed using RLT buffer (Qiagen). For cytokine protein analysis, ILC2s were incubated exclusively with brefeldin A (eBioscience) for 12 hours prior to intracellular staining. For in vivo experiments, B6 mice were injected intraperitoneal with NmU23 peptide (2 g/day) during Nippostrongylus brasiliensis infection or with a single dose of NmU23 (20 μg) and analyzed after 8 hours. Control mice were treated with PBS alone.
Intracellular staining was performed using IC fixation/permeabilization kit (eBioscience). Flow cytometry analysis and cell sorting were performed using BD LSRFORTESSA and BD FACSAria flow cytometers (BD Biosciences). […]

Neuromedin U (FKAEYQSPSVGQSKGYFLFRPRN) [NmU]
up-regulation of innate type 2 cytokines relative to PMA-ionomycin positive control (PMA 50 ng/ml plus ionomycin 500 ng/ml, sorted intestine ILC2, overnight): comparable to the effects observed with PMA-ionomycin activation
expression of innate IL-5 and IL-13 compared to IL-33 and IL-25 (sorted intestine ILC2, overnight, 10, 50 and 100 ng/mL (FIGS. 10c,10d)): prompt, and very robust expression

From US20190358264A1, “METHODS OF TREATING DISEASES ASSOCIATED WITH ILC2 CELLS” (Limm Therapeutics, SA, priority 2016, published 2019)
